{"source": "patent US8598168B2", "about": "(MethylGene Inc., priority 2006, dated 2013)", "key": {"[1]": {"system": "p21 promoter-driven luciferase in HCT116 cells", "experiment": "p21WAF1/Cip1 Assay (p21 promoter-driven luciferase reporter)", "type": "cell-based, human", "details": "16 hours treatment, value designated as reference", "method": "HCT116 cells were stably transfected with reporter plasmids encoding the p21 promoter-driven luciferase. Cells were treated with indicated concentration of HDAC inhibitors for 16 hours before cells were harvested and luciferase activity analyzed. The effective concentration (EC) of MS-275 was designated as 1 μM. The ability of HDAC inhibitor was compared with that of MS-275 (T. Suzuki, et. al J. Med. Chem., 1999, 3001-3003)."}, "HDAC-1": {"target": "HDAC-1 (Homo sapiens, UniProt Q13547)", "sequence (Q13547 whole entry)": "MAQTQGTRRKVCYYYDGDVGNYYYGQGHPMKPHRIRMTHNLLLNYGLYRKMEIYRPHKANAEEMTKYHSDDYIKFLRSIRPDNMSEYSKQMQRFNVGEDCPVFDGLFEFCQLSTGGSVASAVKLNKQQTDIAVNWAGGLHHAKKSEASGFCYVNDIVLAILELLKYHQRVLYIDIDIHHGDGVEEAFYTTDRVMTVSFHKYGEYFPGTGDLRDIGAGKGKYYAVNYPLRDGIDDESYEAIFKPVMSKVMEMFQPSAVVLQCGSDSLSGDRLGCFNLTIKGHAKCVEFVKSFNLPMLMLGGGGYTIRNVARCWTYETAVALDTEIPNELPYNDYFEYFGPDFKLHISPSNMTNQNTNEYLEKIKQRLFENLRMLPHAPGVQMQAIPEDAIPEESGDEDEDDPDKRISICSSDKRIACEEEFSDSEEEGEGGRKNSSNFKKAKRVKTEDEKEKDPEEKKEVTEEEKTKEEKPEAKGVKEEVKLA", "experiment": "Inhibition of Histone Deacetylase Enzymatic (HDAC-1) Activity", "type": "biochemical", "details": "Table 21", "method": "The following protocol was used to assay the compounds of the invention.\nThe mixture was pre-incubated for 5 minutes at room temperature. The reaction was started by bringing the temperature to 37° C. and adding 15 μl substrate. Total reaction volume was 50 μl."}, "[2]": {"experiment": "Log D (comparison with previously disclosed compounds)", "type": "physicochemical", "details": "pH 7.4"}, "[3]": {"system": "human colon cancer HCT116 cells", "experiment": "MTT Assay", "type": "cell-based", "details": "HCT-116, 72 hours, Table 21", "method": "Compounds at various concentrations were added to human colon cancer HCT116 cells plated in 96-well plates. Cells were incubated for 72 hours at 37° C. in 5% CO2 incubator. MTT (3-[4,5-dimethylthiazol-2-yl]-2,5 diphenyl tetrazolium bromide, Sigma) was added at a final concentration of 0.5 mg/ml and incubated with the cells for 4 hours before an equal volume of solubilization buffer (50% N,N-dimethylformamide, 20% SDS, pH 4.7) was added onto cultured cells. After overnight incubation, solubilized dye was quantified by colorimetric reading at […] using a reference at 630 nM. OD values were converted to cell numbers according to a standard growth curve of the relevant cell line. The concentration which reduces cell numbers to 50% of those of DMSO-treated cells is determined as MTT IC50."}}, "note": "pIC50: −log10 of the molar value."}
{"smiles": "Nc1ccccc1NC(=O)c1ccc(CNC(=O)OCc2cccnc2)cc1", "note": "[MS-275]", "values": [{"measurement": "effective concentration (EC) to induce p21 expression", "setting": "[1]", "result": 1, "unit": "µM"}]}
{"smiles": "Nc1ccc(-c2cccs2)cc1NC(=O)c1ccc(CN2CC[C@@H](O)C2)cc1", "note": "[compound 83, (R)-N-(2-amino-5-(thiophen-2-yl)phenyl)-4-((3-hydroxy-pyrrolidin-1-yl)methyl)-benzamide]", "values": [{"measurement": "pIC50", "setting": "HDAC-1", "result": "> 6.00"}, {"measurement": "logD", "setting": "[2]", "result": 2.6}, {"measurement": "pIC50", "setting": "[3]", "result": "5.30 to 6.00"}]}
{"smiles": "CN(C)[C@H]1CCN(Cc2ccc(C(=O)Nc3cc(-c4cccs4)ccc3N)cc2)C1", "note": "[compound 81, (S)-N-(2-amino-5-(thiophen-2-yl)phenyl)-4-((3-(dimethylamino)-pyrrolidin-1-yl)methyl)-benzamide]", "values": [{"measurement": "pIC50", "setting": "HDAC-1", "result": "> 6.00"}, {"measurement": "logD", "setting": "[2]", "result": 2.11}, {"measurement": "pIC50", "setting": "[3]", "result": "> 6.00"}]}
{"smiles": "Nc1ccc(-c2cccs2)cc1NC(=O)c1ccc(CN2CCC[C@@H](O)C2)cc1", "note": "[compound 11, (R)-N-(2-amino-5-(thiophen-2-yl)phenyl)-4-((3-hydroxypiperidin-1-yl)methyl)benzamide]", "values": [{"measurement": "pIC50", "setting": "HDAC-1", "result": "> 6.00"}, {"measurement": "logD", "setting": "[2]", "result": 3.03}, {"measurement": "pIC50", "setting": "[3]", "result": "> 6.00"}]}
{"smiles": "CN(C)[C@H]1CC(=O)N(Cc2ccc(C(=O)Nc3cc(-c4cccs4)ccc3N)cc2)C1=O", "note": "[compound 242, (S)—N-(2-Amino-5-(thiophen-2-yl)phenyl)-4-((3-(dimethylamino)-2,5-dioxopyrrolidin-1-yl)methyl)benzamide]", "values": [{"measurement": "pIC50", "setting": "HDAC-1", "result": "> 6.00"}, {"measurement": "logD", "setting": "[2]", "result": 1.81}, {"measurement": "pIC50", "setting": "[3]", "result": "5.30 to 6.00"}]}
{"smiles": "CCN(C)Cc1ccc(C(=O)Nc2cc(-c3cccs3)ccc2N)cc1", "note": "[compound 14, N-(2-amino-5-(thiophen-2-yl)phenyl)-4-((ethyl(methyl)amino)methyl)benzamide]", "values": [{"measurement": "pIC50", "setting": "HDAC-1", "result": "> 6.00"}, {"measurement": "logD", "setting": "[2]", "result": 3.2}, {"measurement": "pIC50", "setting": "[3]", "result": "> 6.00"}]}
{"smiles": "CC(C)N1CCN(Cc2ccc(C(=O)Nc3cc(-c4cccs4)ccc3N)cc2)CC1", "note": "[compound 15, N-(2-amino-5-(thiophen-2-yl)phenyl)-4-((4-isopropylpiperazin-1-yl)methyl)benzamide]", "values": [{"measurement": "pIC50", "setting": "HDAC-1", "result": "> 6.00"}, {"measurement": "logD", "setting": "[2]", "result": 2.15}, {"measurement": "pIC50", "setting": "[3]", "result": "> 6.00"}]}
{"smiles": "Nc1ccc(-c2cccs2)cc1NC(=O)c1ccc(N2CCC(N3CCCC3)CC2)cc1", "note": "[compound 105, N-(2-amino-5-(thiophen-2-yl)phenyl)-4-(4-(pyrrolidin-1-yl)piperidin-1-yl)benzamide]", "values": [{"measurement": "pIC50", "setting": "HDAC-1", "result": "> 6.00"}, {"measurement": "logD", "setting": "[2]", "result": 1.6}, {"measurement": "pIC50", "setting": "[3]", "result": "> 6.00"}]}
{"smiles": "CC(C)N1CCN(c2ccc(C(=O)Nc3cc(-c4cccs4)ccc3N)cc2)CC1", "note": "[compound 102, N-(2-amino-5-(thiophen-2-yl)phenyl)-4-(4-isopropyl-piperazin-1-yl)benzamide]", "values": [{"measurement": "pIC50", "setting": "HDAC-1", "result": "> 6.00"}, {"measurement": "logD", "setting": "[2]", "result": 1.52}, {"measurement": "pIC50", "setting": "[3]", "result": "> 6.00"}]}
{"smiles": "CN(C)CCSc1ccc(C(=O)Nc2cc(-c3cccs3)ccc2N)cc1", "note": "[compound 106, N-(2-amino-5-(thiophen-2-yl)phenyl)-4-(2-(dimethyl-amino)ethylthio)-benzamide]", "values": [{"measurement": "pIC50", "setting": "HDAC-1", "result": "> 6.00"}, {"measurement": "logD", "setting": "[2]", "result": 2.85}, {"measurement": "pIC50", "setting": "[3]", "result": "5.30 to 6.00"}]}
{"smiles": "Nc1ccc(-c2cccs2)cc1NC(=O)c1ccc(CN2CCCC2)cc1", "note": "[compound 90, N-(2-amino-5-(thiophen-2-yl)phenyl)-4-(pyrrolidin-1-ylmethyl)-benzamide]", "values": [{"measurement": "pIC50", "setting": "HDAC-1", "result": "> 6.00"}, {"measurement": "logD", "setting": "[2]", "result": 3.15}, {"measurement": "pIC50", "setting": "[3]", "result": "> 6.00"}]}
{"smiles": "CN(C)CCN(C)C(=O)NCc1ccc(C(=O)Nc2cc(-c3cccs3)ccc2N)cc1", "note": "[compound 222, N-(2-amino-5-(thiophen-2-yl)phenyl)-4-((3-(2-(dimethylamino)ethyl)-3-methylureido)methyl)benzamide]", "values": [{"measurement": "pIC50", "setting": "HDAC-1", "result": "> 6.00"}, {"measurement": "logD", "setting": "[2]", "result": 1.05}, {"measurement": "pIC50", "setting": "[3]", "result": "> 6.00"}]}
{"smiles": "Nc1ccc(-c2cccs2)cc1NC(=O)c1ccc(CN2CCC(N3CCOCC3)CC2)cc1", "note": "[compound 77, N-(2-amino-5-(thiophen-2-yl)phenyl)-4-((4-morpholino-piperidin-1-yl)-methyl)-benzamide]", "values": [{"measurement": "pIC50", "setting": "HDAC-1", "result": "> 6.00"}, {"measurement": "logD", "setting": "[2]", "result": 2.59}, {"measurement": "pIC50", "setting": "[3]", "result": "> 6.00"}]}
{"smiles": "COCCN1CCN(c2ccc(C(=O)Nc3cc(-c4cccs4)ccc3N)cc2)CC1", "note": "[compound 108, N-(2-amino-5-(thiophen-2-yl)phenyl)-4-(4-(2-methoxyethyl)-piperazin-1-yl)benzamide]", "values": [{"measurement": "pIC50", "setting": "HDAC-1", "result": "> 6.00"}, {"measurement": "logD", "setting": "[2]", "result": 1.78}, {"measurement": "pIC50", "setting": "[3]", "result": "> 6.00"}]}
